Laboratory results published in ChEMBL document CHEMBL5209567, “Membrane potential based assay for SLC2A9 using HEK-293 SLC2A9 OE cells” (2022).

How the values were obtained:
[1] = target: T1, Solute carrier family 2, facilitated glucose transporter member 9 (Homo sapiens, UniProt Q9NRM0); experiment: Substrate uptake by the Glucose Transporter Type 9 (GLUT9, SLC2A9) as assessed by the fluorescent FLIPR membrane potential dye in HEK-293 cells stably transfected with SLC2A9 isoform 2 (PubChem AID: 1794831); format: functional, cell-based, HEK293
T1 sequence (Q9NRM0 whole entry): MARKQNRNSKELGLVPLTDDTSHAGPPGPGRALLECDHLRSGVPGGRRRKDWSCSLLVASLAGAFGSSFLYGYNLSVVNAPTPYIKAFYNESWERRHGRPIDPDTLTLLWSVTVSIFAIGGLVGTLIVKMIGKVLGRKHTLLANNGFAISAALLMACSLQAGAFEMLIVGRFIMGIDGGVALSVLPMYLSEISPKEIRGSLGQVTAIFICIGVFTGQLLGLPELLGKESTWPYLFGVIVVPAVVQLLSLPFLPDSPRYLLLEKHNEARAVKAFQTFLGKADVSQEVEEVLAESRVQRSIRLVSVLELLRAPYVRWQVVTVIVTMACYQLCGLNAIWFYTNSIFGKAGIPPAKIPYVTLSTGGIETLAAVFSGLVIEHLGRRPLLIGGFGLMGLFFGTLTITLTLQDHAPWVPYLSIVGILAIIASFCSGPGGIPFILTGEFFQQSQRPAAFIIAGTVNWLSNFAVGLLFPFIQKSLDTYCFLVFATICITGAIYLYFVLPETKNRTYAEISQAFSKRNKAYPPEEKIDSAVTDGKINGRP

[2] = target: T1, Solute carrier family 2, facilitated glucose transporter member 9; experiment: Substrate uptake by the Glucose Transporter Type 9 (GLUT9, SLC2A9) as assessed by the fluorescent FLIPR membrane potential dye in HEK-293 cells stably transfected with SLC2A9 isoform 1 (PubChem AID: 1794831); format: functional, cell-based, HEK293

Row | Structure (SMILES) | EC50 ([1]; read-out: EC50) | EC50 [2] | EC50 ([1]; hek293)
1 | O=C(O)c1cc(=O)[nH]c(=O)[nH]1 [OROTIC ACID] | 1000 µM | 1000 µM | 
2 | Oc1nc(O)c2nc(O)[nH]c2n1 [URIC ACID] |  | 300 µM | Ec50 Cannot Be Calculated For Isoform 2
